Test results reported in article PMC6990405, “Synthesis and Structure–Activity relationship of 1-(5-isoquinolinesulfonyl)piperazine analogues as inhibitors of Mycobacterium tuberculosis IMPDH” (European Journal of Medicinal Chemistry, 2019).
≈ marks a conversion by molar mass, not a printed value. Where two headings read alike, the source gives them in different places.

Columns and labels:
[1] = target: T1, Mtb IMPDH (Mycobacterium tuberculosis, UniProt P9WKI7); assay: IMPDH biochemical assay (inhibition of Mtb GuaB2); conditions: for IC50: Mtb IMPDH (GuaB2) enzyme
T1 construct: made in house
T1 sequence (P9WKI7 whole entry, looked up): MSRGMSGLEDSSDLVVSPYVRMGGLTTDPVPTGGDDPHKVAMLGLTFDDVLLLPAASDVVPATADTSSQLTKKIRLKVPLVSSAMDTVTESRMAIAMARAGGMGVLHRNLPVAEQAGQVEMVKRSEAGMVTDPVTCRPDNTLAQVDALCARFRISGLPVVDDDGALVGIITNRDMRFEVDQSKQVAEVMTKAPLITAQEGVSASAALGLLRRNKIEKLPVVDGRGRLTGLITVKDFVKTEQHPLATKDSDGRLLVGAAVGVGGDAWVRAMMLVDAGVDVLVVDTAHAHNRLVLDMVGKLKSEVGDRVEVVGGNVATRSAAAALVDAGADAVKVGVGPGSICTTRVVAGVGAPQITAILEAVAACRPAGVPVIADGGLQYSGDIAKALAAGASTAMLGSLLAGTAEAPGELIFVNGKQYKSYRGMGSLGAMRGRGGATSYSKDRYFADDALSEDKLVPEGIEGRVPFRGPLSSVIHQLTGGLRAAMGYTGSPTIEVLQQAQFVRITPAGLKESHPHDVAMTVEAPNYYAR

[2] = test system: wild-type M. tuberculosis strain H37Rv; assay: microbe, parasite or virus in culture; assay type: cell-based
[3] = Mycobacterium tuberculosis, H37RV, wild-type M. tuberculosis H37Rv, read-out: MIC90 against WT
[4] = Mycobacterium tuberculosis, H37RV, read-out: MIC90 against WT, wild-type M. tuberculosis H37Rv
[5] = wild-type M. tuberculosis H37Rv, read-out: MIC90 against WT

`Cc1ccccc1CNC(=O)N1CCN(S(=O)(=O)c2cccc3cnccc23)CC1` [Compound 48, 4-(isoquinolin-5-ylsulfonyl)-N-(2-methylbenzyl)piperazine-1-carboxamide] showed an IC50 [1] of 0.27 ± 0.03 µM and an MIC90 [2, 3] of 3.9 µM (≈ 1.66 µg/mL).

`O=C(Nc1cccc(C(F)(F)F)c1)N1CCN(S(=O)(=O)c2cccc3cnccc23)CC1` [Compound 32, 4-(isoquinolin-5-ylsulfonyl)-N-(3-(trifluoromethyl)phenyl)piperazine-1-carboxamide] gave an IC50 [1] of 0.08 ± 0.005 µM and an MIC90 [2, 3] of 62.5 µM (≈ 29 µg/mL).

Work on `O=C(Nc1cccc(Cl)c1Cl)N1CCN(S(=O)(=O)c2cccc3cnccc23)CC1` [Compound 37, N-(2,3-dichlorophenyl)-4-(isoquinolin-5-ylsulfonyl)piperazine-1-carboxamide] yielded an IC50 [1] of 0.9 ± 0.06 µM and an MIC90 [2, 3] of 125 µM (≈ 58.2 µg/mL).

`CC1(C(=O)N2CCN(S(=O)(=O)c3cccc4cnccc34)CC2)CCCCC1` [Compound 12, [4-(isoquinoline-5-sulfonyl)piperazin-1-yl](1-methylcyclohexyl)methanone] showed an IC50 [1] of 2.4 ± 0.01 µM and an MIC90 [2, 3] of 250 µM (≈ 100 µg/mL).

`Cc1cccc(CC(=O)N2CCN(S(=O)(=O)c3cccc4cnccc34)CC2)c1` [Compound 28, 1-(4-(isoquinolin-5-ylsulfonyl)piperazin-1-yl)-2-(m-tolyl)ethan-1-one] was tested, and the IC50 [1] was 11.5 ± 0.3 µM and the MIC90 [2, 3] was 250 µM (≈ 102 µg/mL).

`CC1CCCCC1C(=O)N1CCN(S(=O)(=O)c2cccc3cnccc23)CC1` (stereo not shown) [Compound 13, [4-(isoquinoline-5-sulfonyl)piperazin-1-yl](2-methylcyclohexyl)methanone] gave an IC50 [1] of 0.084 µM and an MIC90 [2, 3] of 31.2 µM (≈ 12.5 µg/mL).

`O=C(Nc1ccc(F)c(Cl)c1)N1CCN(S(=O)(=O)c2cccc3cnccc23)CC1` [Compound 36, N-(3-chloro-4-fluorophenyl)-4-(isoquinolin-5-ylsulfonyl)piperazine-1-carboxamide] gave an IC50 [1] of 0.042 ± 0.002 µM and an MIC90 [2, 3] of 31.2 µM (≈ 14 µg/mL).

`O=C(Cc1cccc(O)c1)N1CCN(S(=O)(=O)c2cccc3cnccc23)CC1` [Compound 25, 2-(3-hydroxyphenyl)-1-[4-(isoquinoline-5-sulfonyl)piperazin-1-yl]ethan-1-one] was tested, and the IC50 [1] was 4 ± 0.2 µM and the MIC90 [2, 3] was 125 µM (≈ 51.4 µg/mL).

Work on `O=C(c1cc([N+](=O)[O-])cc([N+](=O)[O-])c1)N1CCN(S(=O)(=O)c2cccc3cnccc23)CC1` [Compound 19, [4-(isoquinoline-5-sulfonyl)piperazin-1-yl](3,5-dinitrophenyl)methanone] yielded an IC50 [1] of 1.4 ± 0.01 µM and an MIC90 [2, 3] of 12.5 µM (≈ 5.89 µg/mL).

With `O=C(NCCNS(=O)(=O)c1cccc2cnccc12)C1CCC1` [Compound 10, N-{2-[(isoquinoline-5-sulfonyl)amino]ethyl}cyclobutanecarboxamide] the IC50 [1] was 2.7 ± 0.1 µM and the MIC90 [2, 3] was 100 µM (≈ 33.3 µg/mL).

`O=C(Nc1ccc2c(c1)OCO2)N1CCCN(S(=O)(=O)c2cccc3cnccc23)CC1` [Compound 44, 4-(isoquinoline-5-sulfonyl)-N-(2H-1,3-benzodioxol-5-yl)-1,4-diazepane-1-carboxamide] was tested, and the IC50 [1] was 0.6 ± 0.02 µM, the “fold reduction in biochemical activity” value ([1]; relative to compound 41) was 8 fold and the MIC90 [2, 3] was 12.5 µM (≈ 5.68 µg/mL). The “fold reduction in whole-cell activity” value ([2]; relative to compound 41) was 2 fold.

`O=C(NCCNS(=O)(=O)c1cccc2cnccc12)c1cc([N+](=O)[O-])cc([N+](=O)[O-])c1` [Compound 21, N-{2-[(isoquinoline-5-sulfonyl)amino]ethyl}-3,5-dinitrobenzamide] showed an IC50 [1] of 0.3 ± 0.02 µM and an MIC90 [2, 3] of 15.6 µM (≈ 6.95 µg/mL).

In the case of `Cc1cccc(Cl)c1NC(=O)N1CCN(S(=O)(=O)c2cccc3cnccc23)CC1` [Compound 40, N-(2-chloro-6-methylphenyl)-4-(isoquinolin-5-ylsulfonyl)piperazine-1-carboxamide], the IC50 [1] is reported as 3.4 ± 0.1 µM and the MIC90 [2, 3] is reported as 250 µM (≈ 111 µg/mL).

`O=C(C1CCCCCC1)N1CCN(S(=O)(=O)c2cccc3cnccc23)CC1` [Compound 14, Cycloheptyl[4-(isoquinoline-5-sulfonyl)piperazin-1-yl]methanone] gave an IC50 [1] of 0.83 ± 0.04 µM and an MIC90 [2, 3] of 31.2 µM (≈ 12.5 µg/mL).

For `O=C(NCCNS(=O)(=O)c1cccc2cnccc12)C1CCCCC1` [Compound 2, N-{2-[(isoquinoline-5-sulfonyl)amino]ethyl}cyclohexanecarboxamide], the IC50 [1] was 0.5 ± 0.02 µM and the MIC90 [2, 4] was 50 µM (≈ 18.1 µg/mL).

`O=C(NC1CCN(S(=O)(=O)c2cccc3cnccc23)CC1)C1CCCCC1` [Compound 4, N-[1-(isoquinoline-5-sulfonyl)piperidin-4-yl]cyclohexanecarboxamide] showed an IC50 [1] of 9.7 ± 0.3 µM and an MIC90 [2, 3] of over 100 µM.

In the case of `CC1CN(S(=O)(=O)c2cccc3cnccc23)CCN1C(=O)Nc1ccc2c(c1)OCO2` (stereo not shown) [Compound 45, N-(benzo[d][1,3]dioxol-5-yl)-4-(isoquinolin-5-ylsulfonyl)-2-methylpiperazine-1-carboxamide], the IC50 [1] is reported as 0.12 ± 0.02 µM and the MIC90 [2, 3] is reported as 12.5 µM (≈ 5.68 µg/mL).

`COc1ccc(CC(=O)N2CCN(S(=O)(=O)c3cccc4cnccc34)CC2)c(OC)c1` [Compound 27, 1-[4-(isoquinoline-5-sulfonyl)piperazin-1-yl]-2-(2,4-dimethoxyphenyl)ethan-1-one] gave an IC50 [1] of 1.98 ± 0.1 µM and an MIC90 [2, 3] of 250 µM (≈ 114 µg/mL).

Compound `O=C(Cc1ccc([N+](=O)[O-])cc1)N1CCN(S(=O)(=O)c2cccc3cnccc23)CC1` [Compound 30, 1-(4-(isoquinolin-5-ylsulfonyl)piperazin-1-yl)-2-(4-nitrophenyl)ethan-1-one] has an IC50 [1] of 5.3 ± 0.2 µM and an MIC90 [2, 3] of 250 µM (≈ 110 µg/mL).

`N#Cc1cccc(C(=O)N2CCN(S(=O)(=O)c3cccc4cnccc34)CC2)c1` [Compound 16, 3-[4-(isoquinoline-5-sulfonyl)piperazine-1-carbonyl]benzonitrile] showed an IC50 [1] of 8.6 ± 0.5 µM and an MIC90 [2, 3] of 25 µM (≈ 10.2 µg/mL).

Compound `CC(C)(C)C(=O)N1CCN(S(=O)(=O)c2cccc3cnccc23)CC1` [Compound 11, 1-[4-(isoquinoline-5-sulfonyl)piperazin-1-yl]-2,2-dimethylpropan-1-one] has an IC50 [1] of 2.8 ± 0.2 µM and an MIC90 [2, 3] of 100 µM (≈ 36.1 µg/mL).

`O=C(CC1CCC2(CC1)OCCO2)N1CCN(S(=O)(=O)c2cccc3cnccc23)CC1` [Compound 23, 2-(1,4-dioxaspiro[4.5]decan-8-yl)-1-[4-(isoquinoline-5-sulfonyl)piperazin-1-yl]ethan-1-one] was tested, and the IC50 [1] was 3.3 ± 0.2 µM and the MIC90 [2, 3] was 250 µM (≈ 115 µg/mL).

Work on `Cc1cc2c(S(=O)(=O)N3CCN(C(=O)C4CCCCC4)CC3)cccc2cn1` [Compound 6, Cyclohexyl[4-(3-methylisoquinoline-5-sulfonyl)piperazin-1-yl]methanone] yielded an IC50 [1] of over 100 µM, an MIC90 [2, 4] of 100 µM (≈ 40.2 µg/mL) and an MIC90 [2, 5] of over 100 µM.

In the case of `O=C(CC1CCCCC1)N1CCN(S(=O)(=O)c2cccc3cnccc23)CC1` [Compound 22, 2-Cyclohexyl-1-(4-(isoquinolin-5-ylsulfonyl)piperazin-1-yl)ethan-1-one], the IC50 [1] is reported as 0.23 ± 0.02 µM and the MIC90 [2, 3] is reported as 31.2 µM (≈ 12.5 µg/mL).

In the case of `O=C(OCc1ccccc1)N1CCN(S(=O)(=O)c2cccc3cnccc23)CC1` [Compound 49, Benzyl 4-(isoquinolin-5-ylsulfonyl)piperazine-1-carboxylate], the IC50 [1] is reported as 0.8 ± 0.05 µM and the MIC90 [2, 3] is reported as 100 µM (≈ 41.1 µg/mL).

In the case of `O=C(Nc1ccc2c(c1)OCO2)N1CCN(S(=O)(=O)c2cccc3cnccc23)CC1` [Compound 41, N-(benzo[d][1,3]dioxol-5-yl)-4-(isoquinolin-5-ylsulfonyl)piperazine-1-carboxamide], the IC50 [1] is reported as 0.08 ± 0.005 µM and the MIC90 [2, 3] is reported as 6.3 µM (≈ 2.78 µg/mL).

In the case of `O=C(NCCNS(=O)(=O)c1cccc2cnccc12)C1CC1` [Compound 9, N-{2-[(isoquinoline-5-sulfonyl)amino]ethyl}cyclopropanecarboxamide], the IC50 [1] is reported as 6.9 ± 0.2 µM and the MIC90 [2, 3] is reported as 100 µM (≈ 31.9 µg/mL).

Work on `O=C(c1ccccc1)N1CCN(S(=O)(=O)c2cccc3cnccc23)CC1` [Compound 15, [4-(isoquinoline-5-sulfonyl)piperazin-1-yl](phenyl)methanone] yielded an IC50 [1] of 8.1 ± 0.1 µM, an MIC90 [2, 3] of over 100 µM and an MIC90 [2, 5] of over 100 µM.

`COc1cccc(CNC(=O)N2CCN(S(=O)(=O)c3cccc4cnccc34)CC2)c1` [Compound 47, 4-(isoquinolin-5-ylsulfonyl)-N-(3-methoxybenzyl)piperazine-1-carboxamide] was tested, and the IC50 [1] was 0.035 ± 0.002 µM, the “fold greater potency than 1 (IMPDH)” value ([1]; relative to compound 1) was about 3 fold and the MIC90 [2, 3] was 3.1 µM (≈ 1.37 µg/mL).

`O=C(Nc1ccc(Cl)cc1)N1CCN(S(=O)(=O)c2cccc3cnccc23)CC1` [Compound 33, N-(4-chlorophenyl)-4-(isoquinolin-5-ylsulfonyl)piperazine-1-carboxamide] was tested, and the IC50 [1] was 15 ± 0.5 µM and the MIC90 [2, 3] was 250 µM (≈ 108 µg/mL).

`O=C(Nc1ccc2c(c1)OCO2)N1CCC(NS(=O)(=O)c2cccc3cnccc23)CC1` [Compound 43, 4-[(isoquinoline-5-sulfonyl)amino]-N-(2H-1,3-benzodioxol-5-yl)piperidine-1-carboxamide] was tested, and the IC50 [1] was over 100 µM and the MIC90 [2, 3] was over 100 µM.

`COc1cc(C(=O)N2CCN(S(=O)(=O)c3cccc4cnccc34)CC2)cc(OC)c1OC` [Compound 20, [4-(isoquinoline-5-sulfonyl)piperazin-1-yl](3,4,5-trimethoxyphenyl)methanone] gave an IC50 [1] of 12 ± 0.5 µM and an MIC90 [2, 3] of 15.6 µM (≈ 7.36 µg/mL).

For `N#Cc1cccc(CC(=O)N2CCN(S(=O)(=O)c3cccc4cnccc34)CC2)c1` [Compound 24, 3-{2-[4-(isoquinoline-5-sulfonyl)piperazin-1-yl]-2-oxoethyl}benzonitrile], the IC50 [1] was 5.96 ± 0.2 µM and the MIC90 [2, 3] was 125 µM (≈ 52.6 µg/mL).

`O=C(c1cccc([N+](=O)[O-])c1)N1CCN(S(=O)(=O)c2cccc3cnccc23)CC1` [Compound 18, [4-(isoquinoline-5-sulfonyl)piperazin-1-yl](3-nitrophenyl)methanone] showed an IC50 [1] of 1.1 ± 0.1 µM and an MIC90 [2, 3] of 12.5 µM (≈ 5.33 µg/mL).

Work on `N#Cc1cccc(NC(=O)N2CCN(S(=O)(=O)c3cccc4cnccc34)CC2)c1` [Compound 31, N-(3-cyanophenyl)-4-(isoquinolin-5-ylsulfonyl)piperazine-1-carboxamide] yielded an IC50 [1] of 0.15 ± 0.03 µM and an MIC90 [2, 3] of 15.6 µM (≈ 6.58 µg/mL).

`O=C(NCc1ccccc1)N1CCN(S(=O)(=O)c2cccc3cnccc23)CC1` [Compound 46, N-benzyl-4-(isoquinolin-5-ylsulfonyl)piperazine-1-carboxamide] gave an IC50 [1] of 0.35 ± 0.03 µM and an MIC90 [2, 3] of 3.1 µM (≈ 1.27 µg/mL).

With `N#Cc1ccc(C(=O)N2CCN(S(=O)(=O)c3cccc4cnccc34)CC2)cc1` [Compound 17, 4-[4-(isoquinoline-5-sulfonyl)piperazine-1-carbonyl]benzonitrile] the IC50 [1] was 16.5 ± 0.5 µM and the MIC90 [2, 3] was 100 µM (≈ 40.6 µg/mL).
